Test results as given in patent US12195427B2, “MASP-2 inhibitors and methods of use” (priority 2018, dated 2025).

Legend:
[1] = target: MASP-2 CCP2-SP (Homo sapiens (Human), UniProt O00187); test: MASP-2 co-crystallization, X-ray crystallography and structure analysis (H-bonds, van der Waals contacts); parameters: van der Waals contact distance, MASP-2 HIS 483 atom CD2 / van der Waals contact distance, MASP-2 HIS 483 atom NE2 / van der Waals contact distance, SER 654 C to compound atom / van der Waals contact distance, SER 654 O to compound atom / van der Waals contact distance, TRP 655 C to compound atom / van der Waals contact distance, MASP-2 GLY 528 atom CA / van der Waals contact distance TRP 655 atom CZ3 / van der Waals contact distance TRP 655 atom N / van der Waals contact distance TRP 655 atom CE3 / van der Waals contact distance GLY 656 atom C / van der Waals contact distance GLY 656 atom CA / van der Waals contact distance GLY 656 atom O / van der Waals contact distance, MASP-2 TYR 607 atom CD1 / van der Waals contact distance, MASP-2 PRO 606 atom O / d(C3,CA1) / d(CA1,N1)2 / d(H4,O1) / d(H4,O2) / d(O1,O2) / d(CA1,O2) / d(CA6,O1) / d(CA6,O2) / d(CA1,C5) / d(O2,H3) / d(N2,C2) / d(CA5,N2) / d(N2,C4) / d(N2,C6) / d(N2,CA3) / d(N2,O3) / d(O4,H2): unit not given beside the values;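 on Ligand-pharmacophore element distance, pharmacophore element C2: distance from averaged pharmacophore element to bound ligand; missing value means element absent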;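 on Ligand-pharmacophore element distance, pharmacophore element C3: distance from averaged pharmacophore element to bound ligand; missing value means element absent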;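 on Ligand-pharmacophore element distance, pharmacophore element C4: distance from averaged pharmacophore element to bound ligand; missing value means element absent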;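 on Ligand-pharmacophore element distance, pharmacophore element C5: distance from averaged pharmacophore element to bound ligand; missing value means element absent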
Sequence of MASP-2 CCP2-SP (O00187 445-686): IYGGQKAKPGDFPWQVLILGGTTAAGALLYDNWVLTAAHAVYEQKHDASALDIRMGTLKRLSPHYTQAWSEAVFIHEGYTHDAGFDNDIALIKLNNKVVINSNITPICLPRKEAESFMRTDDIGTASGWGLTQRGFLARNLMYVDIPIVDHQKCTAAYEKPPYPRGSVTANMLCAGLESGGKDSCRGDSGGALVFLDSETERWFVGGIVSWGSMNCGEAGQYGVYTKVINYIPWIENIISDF
Sequence of MASP-2 CCP2-SP (O00187 364-432 partner): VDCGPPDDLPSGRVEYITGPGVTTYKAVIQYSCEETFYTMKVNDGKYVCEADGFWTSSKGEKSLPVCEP
Summary of the method: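 First, CCP2-SP constructs with or without a 6His tag are produced in E. coli. Crystals are then soaked once or twice with inhibitor, cryoprotected in 20% glycerol or frozen directly, and diffracted at synchrotron beamlines. Phasing uses molecular replacement with parts of 1Q3X.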

[2] = system: Lectin Pathway; test: Lectin Pathway Activation Assay in Human Serum (mannan-coated ELISA, C3c detection); format: biochemical; conditions: 1% human serum
Description: Microtiter ELISA plate was coated with mannan from Saccharomyces cerevisiae (Sigma-Aldrich, M7504) for overnight at 4° C. in coating buffer [15 mM Na2CO3, 35 mM NaHCO3].

[3] = Table A5-1 pharmacophore: distance between elements, S2/S1 region
[4] = Table A5-2 pharmacophore distance, S3/S4 region
[5] = Table A7-1, between pharmacophore elements of the bound compound
[6] = Table A8-6, nearest protein atom in cell to the left

With `C[C@H](NC(=O)[C@H]1C[C@@H](c2ccccc2)CCN1)C(=O)NCc1ccc(C(=N)N)cc1` (stereo in doubt) [compound 1065] the “H-bond distance to MASP-2 ASP 627 atom OD1” value ([1]; Table A1 (H-Bonds), ASP 627 OD1) was 3.14, the “H-bond distance to MASP-2 ASP 627 atom OD2” value ([1]; Table A1 (H-Bonds), ASP 627 OD2) was 3.08 and the “H-bond distance to MASP-2 GLY 656 atom N” value ([1]; Table A1 (H-Bonds), GLY 656 N) was 3.31. For the same compound, the “H-bond distance to MASP-2 SER 654 atom O” value ([1]; Table A1 (H-Bonds), SER 654 O) was 2.92, the “van der Waals contact distance, MASP-2 HIS 483 atom CD2” value ([1]; Table A2-1) was 3.67 and the “van der Waals contact distance, MASP-2 amino acid atom to compound atom” value ([1]; Table A2-9, ARG 630, AA atoms CG, CZ) was 3.55. For the same compound, the “van der Waals contact distance, SER 654 C to compound atom” value ([1]; Table A2-11) was 3.78, the “van der Waals contact distance, VAL 653 CG1 to compound atom” value ([1]; Table A2-11) was 3.6 and the “van der Waals contact distance, TRP 655 CA to compound atom” value ([1]; Table A2-12) was 3.46. The “van der Waals contact distance TRP 655 atom CE3” value ([1]; Table A2-13, MASP-2 TRP 655 CE3, compound atom in line below) was 3.6, the “Ligand-pharmacophore element distance, pharmacophore element C2” value ([1]; Table A4-1, element C2) was 0.11 and the “Ligand-pharmacophore element distance, pharmacophore element C3” value ([1]; Table A4-1, element C3) was 0. For the same compound, the “Ligand-pharmacophore element distance, pharmacophore element C4” value ([1]; Table A4-1, element C4) was 0, the “Ligand-pharmacophore element distance, pharmacophore element C5” value ([1]; Table A4-1, element C5) was 0 and the “Ligand-pharmacophore element distance, pharmacophore element C6” value ([1]; Table A4-1, element C6) was 0. For the same compound, the “Ligand-pharmacophore element distance, pharmacophore element C7” value ([1]; Table A4-1, element C7) was 0, the “Ligand-pharmacophore element distance, pharmacophore element CA1” value ([1]; Table A4-1, element CA1) was 0.88 and the “Ligand-pharmacophore element distance, pharmacophore element CA2” value ([1]; Table A4-1, element CA2) was 0.1. For the same compound, the “Ligand-pharmacophore element distance, pharmacophore element CA3” value ([1]; Table A4-1, element CA3) was 0, the “Ligand-pharmacophore element distance, pharmacophore element CA4” value ([1]; Table A4-1, element CA4) was 0 and the “Ligand-pharmacophore element distance, pharmacophore element CA5” value ([1]; Table A4-1, element CA5) was 0. The “Ligand-pharmacophore element distance, pharmacophore element CA6” value ([1]; Table A4-1, element CA6) was 0, the “d(CA1,N1)” value [1, 3] was 3.47 and the “d(CA1,O1)” value [1, 3] was 4.32. For the same compound, the “d(CA1,O2)” value [1, 3] was 4.20, the “d(H4,O1)” value [1, 3] was 6.39 and the “d(H4,O2)” value [1, 3] was 5.35. For the same compound, the “d(O1,O2)” value [1, 3] was 3.30, the “d(N2,C2)” value [1, 4] was 1.40 and the “d(N2,CA2)” value [1, 4] was 5.75. For the same compound, the “d(O2,H3)” value [1, 4] was 4.40, the “d(O2,N2)” value [1, 4] was 2.83 and the “a(CA1, O1, O2)” value ([1]; Table A6-1 pharmacophore angle) was 110.77. The “a(O1, O2, H4)” value ([1]; Table A6-1 pharmacophore angle) was 148.95, the “A(N1, CA1, O1) a)” value ([1]; Table A6-1 pharmacophore angle, all compounds with protonatable center N1 except Methyl-amino-pyridine) was 165.45 and the “a(O1, O2, H3)” value ([1]; Table A6-2 pharmacophore angle) was 145.76. The “a(O1, O2, N2)” value ([1]; Table A6-2 pharmacophore angle) was 144.81, the “a(O2, N2, C2)” value ([1]; Table A6-2 pharmacophore angle) was 124.85 and the “a(O2, N2, CA2)” value ([1]; Table A6-2 pharmacophore angle) was 154.55. The “Pharmacophore torsion angle a(H4, O1, O2, H3)” value [1, 5] was 44.38, the “Pharmacophore torsion angle a(H4, O1, O2, N2)” value [1, 5] was 129.83 and the “Pharmacophore torsion angle a(N1, CA1, O2, H4)” value [1, 5] was −89.34. For the same compound, the “Pharmacophore torsion angle a(O1, H4, O2, CA1)” value [1, 5] was −21.94, the “Pharmacophore torsion angle a(O1, O2, N2, C2)” value [1, 5] was 124.96 and the “Pharmacophore torsion angle a(O1, O2, N2, CA2)” value ([1]; Table A7-2, between pharmacophore elements of the bound compound) was 129.88. For the same compound, the “Pharmacophore protein distance to MET_658 (first MET_658 column)” value ([1]; Table A8-6, 6th residue column, nearest protein atom in cell to the left) was 3.34, the “Pharmacophore protein distance to MET_658 (second MET_658 column)” value ([1]; Table A8-6, 9th residue column, nearest protein atom in cell to the left) was 3.79 and the “Pharmacophore protein distance to GLY_528” value [1, 6] was 3.56. For the same compound, the “Pharmacophore protein distance to PHE_529” value [1, 6] was 2.70, the “Pharmacophore protein distance to PRO_608” value [1, 6] was 3.75 and the “Pharmacophore protein distance to SER_611” value [1, 6] was 2.57. For the same compound, the “Pharmacophore protein distance to TRP_655” value ([1]; Table A8-6, pharmacophore elements C6, CA3, O3, H1, nearest protein atom in cell to the left) was 3.87 and the IC50 [2] was less than 50 nM.
